From ChEMBL document CHEMBL1201862, “PubChem BioAssay data set” (2004)
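Briefly, cells in 96-well plates were exposed to five compound concentrations for 48 h, and endpoints were estimated by linear interpolation. GI50 marks 50% less growth.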 The source made the active and inactive calls. Rule as the data show it: active = GI50 up to about 1.1 µM and inactive = higher.

Experiments:
Experiment in all cases: NCI anticancer screen, dose series, 48 h
CCRF-CEM = test system: CCRF-CEM
SK-MEL-5 = test system: SK-MEL-5
SN12C = test system: SN12C
UO-31 = test system: UO-31
Hs-578T = test system: Hs-578T
LOX IMVI = test system: LOX IMVI
MDA-N = test system: MDA-N
SF-268 = test system: SF-268
SK-MEL-28 = test system: SK-MEL-28
PC-3 = test system: PC-3
A549 = test system: A549
K562 = test system: K562
CAKI-1 = test system: CAKI-1
Malme-3M = test system: Malme-3M
SK-MEL-2 = test system: SK-MEL-2
OVCAR-8 = test system: OVCAR-8
HCT-15 = test system: HCT-15
KM12 = test system: KM12
MOLT-4 = test system: MOLT-4
UACC-62 = test system: UACC-62
OVCAR-4 = test system: OVCAR-4
NCI/ADR-RES = test system: NCI/ADR-RES
HCT-116 = test system: HCT-116
SW-620 = test system: SW-620
SK-OV-3 = test system: SK-OV-3
SF-539 = test system: SF-539
786-0 = test system: 786-0
TK-10 = test system: TK-10
T47D = test system: T47D
MCF7 = test system: MCF7
MDA-MB-231 = test system: MDA-MB-231
MDA-MB-435 = test system: MDA-MB-435
RPMI-8226 = test system: RPMI-8226
NCI-H522 = test system: NCI-H522
IGROV-1 = test system: IGROV-1
HL-60 = test system: HL-60
BT-549 = test system: BT-549
SNB-75 = test system: SNB-75
OVCAR-5 = test system: OVCAR-5
EKVX = test system: EKVX
NCI-H23 = test system: NCI-H23
HOP-62 = test system: HOP-62
UACC-257 = test system: UACC-257
HOP-92 = test system: HOP-92
HT-29 = test system: HT-29
SF-295 = test system: SF-295
SR = test system: SR
COLO 205 = test system: COLO 205
OVCAR-3 = test system: OVCAR-3
U-251 = test system: U-251
DU-145 = test system: DU-145
M14 = test system: M14
A498 = test system: A498
NCI-H226 = test system: NCI-H226
NCI-H460 = test system: NCI-H460
ACHN = test system: ACHN
HCC 2998 = test system: HCC 2998
SNB-19 = test system: SNB-19
RXF 393 = test system: RXF 393

For `C#CCn1c2c(c3ccccc3c1=O)C(=O)c1ccccc1-2`, the GI50 (CCRF-CEM) was > 100 µM (inactive), the GI50 (SK-MEL-5) was 2.37 µM (inactive) and the GI50 (SN12C) was 11.4 µM (inactive). The GI50 (UO-31) was 2 µM (inactive), the GI50 (Hs-578T) was 15.8 µM (inactive) and the GI50 (LOX IMVI) was 18.2 µM (inactive). For the same compound, the GI50 (MDA-N) was 37.7 µM (inactive), the GI50 (SF-268) was 14 µM (inactive) and the GI50 (SK-MEL-28) was 26.6 µM (inactive). For the same compound, the GI50 (PC-3) was 11.7 µM (inactive), the GI50 (A549) was 13.6 µM (inactive) and the GI50 (K562) was 19 µM (inactive). For the same compound, the GI50 (CAKI-1) was 12 µM (inactive), the GI50 (Malme-3M) was 25.5 µM (inactive) and the GI50 (SK-MEL-2) was 29.9 µM (inactive). For the same compound, the GI50 (OVCAR-8) was 19.6 µM (inactive), the GI50 (HCT-15) was 22.2 µM and the GI50 (KM12) was 10.1 µM (inactive). For the same compound, the GI50 (MOLT-4) was 2.83 µM (inactive), the GI50 (UACC-62) was 21.4 µM (inactive) and the GI50 (OVCAR-4) was 11.4 µM (inactive). For the same compound, the GI50 (NCI/ADR-RES) was 21.5 µM (inactive), the GI50 (HCT-116) was 19.6 µM (inactive) and the GI50 (SW-620) was 23.9 µM (inactive). For the same compound, the GI50 (SK-OV-3) was 27.4 µM (inactive), the GI50 (SF-539) was 11.6 µM (inactive) and the GI50 (786-0) was 14 µM (inactive). For the same compound, the GI50 (TK-10) was 19.5 µM (inactive), the GI50 (T47D) was 15.8 µM (inactive) and the GI50 (MCF7) was 9.06 µM (inactive). For the same compound, the GI50 (MDA-MB-231) was 15.2 µM (inactive), the GI50 (MDA-MB-435) was 67.3 µM (inactive) and the GI50 (RPMI-8226) was 13 µM (inactive). The GI50 (NCI-H522) was 10.7 µM (inactive), the GI50 (IGROV-1) was 15.7 µM (inactive) and the GI50 (HL-60) was 2.94 µM (inactive). The GI50 (BT-549) was 22.1 µM (inactive), the GI50 (SNB-75) was 13.4 µM (inactive) and the GI50 (OVCAR-5) was 24.7 µM (inactive). The GI50 (EKVX) was 16.3 µM (inactive), the GI50 (NCI-H23) was 11.4 µM (inactive) and the GI50 (HOP-62) was 11.9 µM (inactive). For the same compound, the GI50 (UACC-257) was 32.3 µM (inactive), the GI50 (HOP-92) was 29.9 µM (inactive) and the GI50 (HT-29) was 10.7 µM (inactive). For the same compound, the GI50 (SF-295) was 20.2 µM (inactive), the GI50 (SR) was 4.49 µM (inactive) and the GI50 (COLO 205) was 22.4 µM (inactive). For the same compound, the GI50 (OVCAR-3) was 14.7 µM (inactive), the GI50 (U-251) was 15.2 µM (inactive) and the GI50 (DU-145) was 11.7 µM (inactive). The GI50 (M14) was 42.8 µM (inactive), the GI50 (A498) was 22.7 µM (inactive) and the GI50 (NCI-H226) was 16.7 µM (inactive).

In the case of `Cc1cc(NS(=O)(=O)c2ccc(Nc3c4ccccc4nc4c(C(=O)NC(CO)(CO)CO)cccc34)cc2)no1`, the GI50 (CCRF-CEM) is reported as 19.4 µM (inactive), the GI50 (SK-MEL-5) is reported as 32.4 µM (inactive) and the GI50 (SN12C) is reported as 23.1 µM (inactive). For the same compound, the GI50 (UO-31) was 48.6 µM (inactive), the GI50 (Hs-578T) was 25.1 µM (inactive) and the GI50 (LOX IMVI) was 18.2 µM (inactive). For the same compound, the GI50 (MDA-N) was 37.3 µM (inactive), the GI50 (SF-268) was 21.3 µM (inactive) and the GI50 (SK-MEL-28) was 52.8 µM (inactive). For the same compound, the GI50 (PC-3) was 31.3 µM (inactive), the GI50 (A549) was 48.1 µM (inactive) and the GI50 (K562) was 33.3 µM (inactive). For the same compound, the GI50 (CAKI-1) was 42.2 µM (inactive), the GI50 (Malme-3M) was 29.4 µM (inactive) and the GI50 (SK-MEL-2) was 19.4 µM (inactive). For the same compound, the GI50 (OVCAR-8) was 49.7 µM (inactive), the GI50 (HCT-15) was 61.7 µM and the GI50 (KM12) was 25.2 µM (inactive). The GI50 (MOLT-4) was 8.75 µM (inactive), the GI50 (UACC-62) was 22 µM (inactive) and the GI50 (NCI-H460) was > 10 µM (inactive). The GI50 (OVCAR-4) was 48.8 µM (inactive), the GI50 (NCI/ADR-RES) was > 100 µM (inactive) and the GI50 (SW-620) was 31 µM (inactive). The GI50 (SK-OV-3) was 35.2 µM (inactive), the GI50 (786-0) was 34.4 µM (inactive) and the GI50 (TK-10) was 29.2 µM (inactive). The GI50 (T47D) was 26.5 µM (inactive), the GI50 (MCF7) was 23.3 µM (inactive) and the GI50 (MDA-MB-231) was 37.9 µM (inactive). The GI50 (MDA-MB-435) was 53.5 µM (inactive), the GI50 (RPMI-8226) was 19.7 µM (inactive) and the GI50 (NCI-H522) was 15.8 µM (inactive). For the same compound, the GI50 (IGROV-1) was 29 µM (inactive), the GI50 (HL-60) was 34.5 µM (inactive) and the GI50 (BT-549) was 39.2 µM (inactive). The GI50 (ACHN) was 32.7 µM (inactive), the GI50 (SNB-75) was 8.41 µM (inactive) and the GI50 (OVCAR-5) was 62.8 µM (inactive). For the same compound, the GI50 (HCC 2998) was 16.9 µM (inactive), the GI50 (EKVX) was 73.6 µM (inactive) and the GI50 (NCI-H23) was 43.6 µM (inactive). For the same compound, the GI50 (HOP-62) was 25.1 µM (inactive), the GI50 (UACC-257) was 72.1 µM (inactive) and the GI50 (SNB-19) was 34.4 µM (inactive). The GI50 (HOP-92) was 32.7 µM (inactive), the GI50 (HT-29) was 38.7 µM (inactive) and the GI50 (SF-295) was 41 µM (inactive). The GI50 (SR) was 26.3 µM (inactive), the GI50 (COLO 205) was 42.4 µM (inactive) and the GI50 (OVCAR-3) was 39.3 µM (inactive). For the same compound, the GI50 (U-251) was 34.2 µM (inactive), the GI50 (DU-145) was 48.1 µM (inactive) and the GI50 (M14) was 52.5 µM (inactive). For the same compound, the GI50 (A498) was 47.1 µM (inactive).

`CC(C)CCCC(C)[C@H]1CC[C@H]2N/C(=N/Cc3ccccc3)CCC[C@]12C` (stereo partly drawn) was tested, and the GI50 (CCRF-CEM) was 2.13 µM (inactive), the GI50 (SK-MEL-5) was 1.58 µM (inactive) and the GI50 (SN12C) was 1.84 µM (inactive). The GI50 (UO-31) was 2.59 µM (inactive), the GI50 (Hs-578T) was 3.37 µM (inactive) and the GI50 (LOX IMVI) was 1.92 µM (inactive). The GI50 (MDA-N) was 1.71 µM (inactive), the GI50 (SF-268) was 2.2 µM (inactive) and the GI50 (SK-MEL-28) was 1.47 µM (inactive). The GI50 (RXF 393) was 1.53 µM (inactive), the GI50 (PC-3) was 1.81 µM (inactive) and the GI50 (A549) was 1.83 µM (inactive). For the same compound, the GI50 (K562) was 1.26 µM (inactive), the GI50 (CAKI-1) was 2.25 µM (inactive) and the GI50 (Malme-3M) was 1.97 µM (inactive). For the same compound, the GI50 (SK-MEL-2) was 1.97 µM (inactive), the GI50 (OVCAR-8) was 1.67 µM (inactive) and the GI50 (HCT-15) was 1.67 µM. The GI50 (KM12) was 1.88 µM (inactive), the GI50 (MOLT-4) was 1.88 µM (inactive) and the GI50 (UACC-62) was 1.83 µM (inactive). For the same compound, the GI50 (NCI-H460) was 1.66 µM (inactive), the GI50 (OVCAR-4) was 1.98 µM (inactive) and the GI50 (NCI/ADR-RES) was 1.65 µM (inactive). The GI50 (HCT-116) was 2.6 µM (inactive), the GI50 (SW-620) was 1.91 µM (inactive) and the GI50 (SK-OV-3) was 5.31 µM (inactive). For the same compound, the GI50 (SF-539) was 1.83 µM (inactive), the GI50 (786-0) was 2 µM (inactive) and the GI50 (TK-10) was 2.08 µM (inactive). For the same compound, the GI50 (T47D) was 2.83 µM (inactive), the GI50 (MCF7) was 1.71 µM (inactive) and the GI50 (MDA-MB-231) was 2.05 µM (inactive). For the same compound, the GI50 (MDA-MB-435) was 1.64 µM (inactive), the GI50 (RPMI-8226) was 1.59 µM (inactive) and the GI50 (IGROV-1) was 1.74 µM (inactive). The GI50 (HL-60) was 2.11 µM (inactive), the GI50 (BT-549) was 2.72 µM (inactive) and the GI50 (SNB-75) was 1.83 µM (inactive). For the same compound, the GI50 (NCI-H23) was 2.23 µM (inactive), the GI50 (HOP-62) was 2.46 µM (inactive) and the GI50 (UACC-257) was 2.42 µM (inactive). For the same compound, the GI50 (SNB-19) was 2.94 µM (inactive), the GI50 (HOP-92) was 2.09 µM (inactive) and the GI50 (HT-29) was 1.28 µM (inactive). The GI50 (SF-295) was 2.03 µM (inactive), the GI50 (SR) was 2.72 µM (inactive) and the GI50 (COLO 205) was 1.42 µM (inactive). The GI50 (OVCAR-3) was 2.07 µM (inactive), the GI50 (U-251) was 1.78 µM (inactive) and the GI50 (DU-145) was 2.52 µM (inactive). The GI50 (M14) was 2.32 µM (inactive), the GI50 (A498) was 1.95 µM (inactive) and the GI50 (NCI-H226) was 2.07 µM (inactive).
